{"source": "patent US20200037600A1", "about": "“MESOIONIC IMIDAZOPYRIDINES AS INSECTICIDES” (Bayer Aktiengesellschaft, priority 2017, published 2020)", "assay_type_in_all_cases": "in vivo", "key": {"[1]": {"tested_on": "Myzus persicae", "experiment": "Myzus persicae oral test", "settings": "after 5 days", "protocol": "Solvent: 100 parts by weight of acetone\nTo produce a suitable active compound formulation, 1 part by weight of active compound is dissolved with the stated parts by weight of solvent and made up to the desired concentration with water.\n50 μl of the active compound formulation are transferred into microtitre plates and made up to a final volume of 200 μl with 150 μl of IPL41 insect medium (33%+15% sugar). Subsequently, the plates are sealed with parafilm, which a mixed population of green peach aphids (Myzus persicae) within a second microtitre plate is able to puncture and imbibe the solution.\n(§1) After 5 days, the efficacy in % is determined. 100% means that all the aphids have been killed; 0% means that no aphids have been killed."}, "[2]": {"tested_on": "Diabrotica balteata", "experiment": "Diabrotica balteata spray test", "settings": "application rate 160 μg/well, beetle larvae on germinated wheat grains, after 7 days", "protocol": "Diabrotica balteata—Spray Test\n(§2) Solvent: 78 parts by weight of acetone • • 1.5 parts by weight of dimethylformamide\n(§3) Emulsifier: alkylaryl polyglycol ether\n(§4) To produce a suitable active compound formulation, 1 part by weight of active compound is dissolved with the specified parts by weight of solvent and made up to the desired concentration with water containing an emulsifier concentration of 1000 ppm. To produce further test concentrations, the formulation is diluted with emulsifier-containing water.\nPre-swollen wheat grains (Triticum aestivum) are incubated in a multiwell plate filled with agar and a little water for one day (5 seed grains per well). The germinated wheat grains are sprayed with an active compound preparation of the desired concentration. Subsequently, each cavity is infected with 10-20 beetle larvae of Diabrotica balteata.\nAfter 7 days, the efficacy in % is determined. 100% means that all maize plants have grown as in the untreated, uninfected control; 0% means that no maize plant has grown."}, "[3]": {"tested_on": "Myzus persicae", "experiment": "Myzus persicae spray test", "settings": "application rate 500 g/ha, Chinese cabbage leaf discs, after 5 days", "protocol": "Myzus persicae—Spray Test\nas §2, §3, §4\nDiscs of Chinese cabbage leaves (Brassica pekinensis) infested by all stages of the green peach aphid (Myzus persicae) are sprayed with an active compound formulation of the desired concentration.\nas §1"}}, "data": [{"smiles": "O=C(CCl)c1c([O-])[n+]2ccccc2n1Cc1ccc(Cl)nc1", "note": "[Example I-001]", "values": [{"measurement": "efficacy", "setting": "[1]; application rate 20 ppm", "value": 100, "unit": "%"}]}, {"smiles": "O=C(c1c([O-])[n+]2ccccc2n1Cc1ccc(Cl)nc1)C(F)(F)F", "note": "[Example I-002]", "values": [{"measurement": "efficacy", "setting": "[2]", "value": 100, "unit": "%"}, {"measurement": "efficacy", "setting": "[1]; application rate 4 ppm", "value": 100, "unit": "%"}, {"measurement": "efficacy", "setting": "[1]; application rate 20 ppm", "value": 100, "unit": "%"}, {"measurement": "efficacy", "setting": "[3]", "value": 100, "unit": "%"}]}, {"smiles": "CC(=O)c1c([O-])[n+]2ccccc2n1Cc1ccc(Cl)nc1", "note": "[Example I-003]", "values": [{"measurement": "efficacy", "setting": "[1]; application rate 4 ppm", "value": 90, "unit": "%"}, {"measurement": "efficacy", "setting": "[1]; application rate 20 ppm", "value": 100, "unit": "%"}]}, {"smiles": "O=C(Cn1cc(Cl)cn1)c1c([O-])[n+]2ccccc2n1Cc1ccc(Cl)nc1", "note": "[Example I-006]", "values": [{"measurement": "efficacy", "setting": "[1]; application rate 20 ppm", "value": 100, "unit": "%"}]}, {"smiles": "COCC(=O)c1c([O-])[n+]2ccccc2n1Cc1ccc(Cl)nc1", "note": "[Example I-009]", "values": [{"measurement": "efficacy", "setting": "[1]; application rate 4 ppm", "value": 100, "unit": "%"}, {"measurement": "efficacy", "setting": "[1]; application rate 20 ppm", "value": 100, "unit": "%"}]}, {"smiles": "O=C(c1c([O-])[n+]2ccccc2n1Cc1cncnc1)C(F)(F)F", "note": "[Example I-012]", "values": [{"measurement": "efficacy", "setting": "[1]; application rate 4 ppm", "value": 100, "unit": "%"}, {"measurement": "efficacy", "setting": "[1]; application rate 20 ppm", "value": 100, "unit": "%"}]}, {"smiles": "CCC(=O)c1c([O-])[n+]2ccccc2n1Cc1cnc(Cl)s1", "note": "[Example I-014]", "values": [{"measurement": "efficacy", "setting": "[2]", "value": 80, "unit": "%"}, {"measurement": "efficacy", "setting": "[1]; application rate 4 ppm", "value": 100, "unit": "%"}]}, {"smiles": "O=C(NCC1CC1)c1c([O-])[n+]2ccccc2n1Cc1cnc(Cl)s1", "note": "[Example I-016]", "values": [{"measurement": "efficacy", "setting": "[2]", "value": 100, "unit": "%"}, {"measurement": "efficacy", "setting": "[1]; application rate 4 ppm", "value": 90, "unit": "%"}]}, {"smiles": "CNC(=O)c1c([O-])[n+]2ccccc2n1Cc1cnc(Cl)s1", "note": "[Example I-017]", "values": [{"measurement": "efficacy", "setting": "[2]", "value": 100, "unit": "%"}, {"measurement": "efficacy", "setting": "[1]; application rate 4 ppm", "value": 100, "unit": "%"}]}, {"smiles": "O=C(CBr)c1c([O-])[n+]2ccccc2n1Cc1cnc(Cl)s1", "note": "[Example I-020]", "values": [{"measurement": "efficacy", "setting": "[1]; application rate 4 ppm", "value": 100, "unit": "%"}, {"measurement": "efficacy", "setting": "[3]", "value": 90, "unit": "%"}]}, {"smiles": "O=C(NCc1ccccc1)c1c([O-])[n+]2ccccc2n1Cc1cnc(Cl)s1", "note": "[Example I-022]", "values": [{"measurement": "efficacy", "setting": "[2]", "value": 100, "unit": "%"}]}, {"smiles": "O=C(c1ccc(Cl)cc1)c1c([O-])[n+]2ccccc2n1Cc1cnc(Cl)s1", "note": "[Example I-030]", "values": [{"measurement": "efficacy", "setting": "[2]", "value": 100, "unit": "%"}, {"measurement": "efficacy", "setting": "[1]; application rate 4 ppm", "value": 100, "unit": "%"}]}, {"smiles": "O=C(c1c([O-])[n+]2ccccc2n1Cc1cnc(Cl)s1)C1CC1", "note": "[Example I-031]", "values": [{"measurement": "efficacy", "setting": "[2]", "value": 100, "unit": "%"}, {"measurement": "efficacy", "setting": "[1]; application rate 4 ppm", "value": 90, "unit": "%"}]}, {"smiles": "COC(=O)C(=O)c1c([O-])[n+]2ccccc2n1Cc1cnc(Cl)s1", "note": "[Example I-032]", "values": [{"measurement": "efficacy", "setting": "[1]; application rate 4 ppm", "value": 100, "unit": "%"}, {"measurement": "efficacy", "setting": "[3]", "value": 100, "unit": "%"}]}, {"smiles": "O=C(OCC(F)(F)F)C(=O)c1c([O-])[n+]2ccccc2n1Cc1cnc(Cl)s1", "note": "[Example I-036]", "values": [{"measurement": "efficacy", "setting": "[1]; application rate 4 ppm", "value": 100, "unit": "%"}, {"measurement": "efficacy", "setting": "[3]", "value": 90, "unit": "%"}]}, {"smiles": "O=C(OCc1cccc(Cl)n1)C(=O)c1c([O-])[n+]2ccccc2n1Cc1cnc(Cl)s1", "note": "[Example I-042]", "values": [{"measurement": "efficacy", "setting": "[3]", "value": 100, "unit": "%"}]}, {"smiles": "Cc1ccc[n+]2c([O-])c(C(=O)C(=O)OCC3CC3)n(Cc3cnc(Cl)s3)c12", "note": "[Example I-047]", "values": [{"measurement": "pest or weed control at 160 µg/disc, 160 µg/well", "setting": "[2]; Diabrotica balteata, 168 h, read-out: efficacy", "value": 100, "unit": "%"}, {"measurement": "pest or weed control at 4 ppm", "setting": "[1]; Myzus persicae, po, 120 h, application rate 4 ppm, read-out: efficacy", "value": 100, "unit": "%"}, {"measurement": "pest or weed control at 500 g/ha", "setting": "[3]; Myzus persicae, foliar, 120 h, read-out: efficacy", "value": 90, "unit": "%"}]}, {"smiles": "O=C(c1cccc(C(F)(F)F)c1)c1c([O-])[n+]2ccccc2n1Cc1cncnc1", "note": "[Example I-049]", "values": [{"measurement": "efficacy", "setting": "[1]; application rate 4 ppm", "value": 100, "unit": "%"}, {"measurement": "efficacy", "setting": "[3]", "value": 90, "unit": "%"}]}, {"smiles": "O=C(OCC(F)F)C(=O)c1c([O-])[n+]2ccccc2n1Cc1cnc(Cl)s1", "note": "[Example I-051]", "values": [{"measurement": "efficacy", "setting": "[1]; application rate 4 ppm", "value": 100, "unit": "%"}, {"measurement": "efficacy", "setting": "[3]", "value": 90, "unit": "%"}]}, {"smiles": "O=C(OCCc1ccccc1)C(=O)c1c([O-])[n+]2ccccc2n1Cc1cnc(Cl)s1", "note": "[Example I-052]", "values": [{"measurement": "efficacy", "setting": "[1]; application rate 4 ppm", "value": 100, "unit": "%"}]}, {"smiles": "O=C(OCc1ccccc1)C(=O)c1c([O-])[n+]2ccccc2n1Cc1cnc(Cl)s1", "note": "[Example I-053]", "values": [{"measurement": "efficacy", "setting": "[1]; application rate 4 ppm", "value": 100, "unit": "%"}]}, {"smiles": "O=C(OCCC(F)(F)F)C(=O)c1c([O-])[n+]2ccccc2n1Cc1cnc(Cl)s1", "note": "[Example I-054]", "values": [{"measurement": "efficacy", "setting": "[1]; application rate 4 ppm", "value": 100, "unit": "%"}, {"measurement": "efficacy", "setting": "[3]", "value": 70, "unit": "%"}]}, {"smiles": "C#CCOC(=O)C(=O)c1c([O-])[n+]2ccccc2n1Cc1cnc(Cl)s1", "note": "[Example I-055]", "values": [{"measurement": "efficacy", "setting": "[1]; application rate 4 ppm", "value": 100, "unit": "%"}, {"measurement": "efficacy", "setting": "[3]", "value": 90, "unit": "%"}]}, {"smiles": "CC(C)=CCOC(=O)C(=O)c1c([O-])[n+]2ccccc2n1Cc1cnc(Cl)s1", "note": "[Example I-057]", "values": [{"measurement": "efficacy", "setting": "[1]; application rate 4 ppm", "value": 100, "unit": "%"}, {"measurement": "efficacy", "setting": "[3]", "value": 90, "unit": "%"}]}, {"smiles": "CC(C)(C)OC(=O)C(=O)c1c([O-])[n+]2ccccc2n1Cc1cnc(Cl)s1", "note": "[Example I-066]", "values": [{"measurement": "efficacy", "setting": "[1]; application rate 4 ppm", "value": 90, "unit": "%"}, {"measurement": "efficacy", "setting": "[3]", "value": 90, "unit": "%"}]}]}
